In brackets after ≈: the same amount, converted by molar mass.
What was measured:
B. subtilis ATCC6633 = assay: MIC assay; assay type: cell-based, Bacillus subtilis; settings: Bacillus subtilis, ATCC6633; two-fold serial dilutions in liquid media; n = 2–3
S. aureus ATCC6538P = assay: MIC assay; assay type: cell-based, Staphylococcus aureus; settings: Staphylococcus aureus, ATCC6538P; two-fold serial dilutions in liquid media; n = 2–3
E. coli ATCC8739 = assay: MIC assay; assay type: cell-based, Escherichia coli; settings: Escherichia coli, ATCC8739; two-fold serial dilutions in liquid media; n = 2–3
P. aeruginosa ATCC9027 = assay: MIC assay; assay type: cell-based, Pseudomonas aeruginosa; settings: two-fold serial dilutions in liquid media, n = 2–3
M. smegmatis ATCC700084 = assay: MIC assay (REMA); assay type: cell-based, Mycobacterium smegmatis; settings: Mycolicibacterium smegmatis, ATCC700084, REMA microdilution, n = 2–3
C. albicans DSM10697 = assay: MIC assay; assay type: cell-based, Candida albicans; settings: Candida albicans, DSM10697; two-fold serial dilutions in liquid media; n = 2–3
[1] = test system: Bacillus anthracis (CNR-charbon_04022); assay: microbe, parasite or virus in culture; assay type: cell-based; settings: read-out: MIC Bacillus anthracis (CNR-charbon_04022)
Bacillus cereus (DSM31) = assay: MIC assay; assay type: cell-based; settings: two-fold serial dilutions in liquid media, n = 2–3
[2] = test system: Clostridium botulinum (DSM1985); assay: microbe, parasite or virus in culture; assay type: cell-based; settings: DSM1985, read-out: MIC Clostridium botulinum (DSM1985)
[3] = test system: Clostridium difficile (DSM1296); assay: MIC assay; assay type: cell-based; settings: Clostridioides difficile, two-fold serial dilutions in liquid media, n = 2–3
[4] = test system: Clostridium perfringens (ATCC13124); assay: microbe, parasite or virus in culture; assay type: cell-based; settings: ATCC13124, read-out: MIC Clostridium perfringens (ATCC13124)
[5] = test system: Enterococcus faecalis (DSM2570); assay: MIC assay; assay type: cell-based; settings: two-fold serial dilutions in liquid media, n = 2–3
[6] = test system: Enterococcus faecium (DSM20477); assay: MIC assay; assay type: cell-based; settings: two-fold serial dilutions in liquid media, n = 2–3
[7] = test system: Listeria monocytogenes (DSM20600); assay: MIC assay; assay type: cell-based; settings: two-fold serial dilutions in liquid media, n = 2–3
[8] = test system: Propionibacterium acnes (ATCC6919); assay: MIC assay; assay type: cell-based; settings: Cutibacterium acnes, two-fold serial dilutions in liquid media, n = 2–3
MRSA (ATCCBAA-1717) = assay: MIC assay; assay type: cell-based, methicillin-resistant S. aureus; settings: Staphylococcus aureus, read-out: MIC MRSA (ATCCBAA-1717)
[9] = test system: Streptococcus pyogenes (DSM20565); assay: MIC assay; assay type: cell-based; settings: two-fold serial dilutions in liquid media, n = 2–3
[10] = test system: Acinetobacter baumannii (DSM30007); assay: MIC assay; assay type: cell-based; settings: two-fold serial dilutions in liquid media, n = 2–3
[11] = test system: Brucella melitensis (NR-256); assay: microbe, parasite or virus in culture; assay type: cell-based; settings: read-out: MIC Brucella melitensis (NR-256)
[12] = test system: Enterobacter cloacae (DSM30054); assay: MIC assay; assay type: cell-based; settings: two-fold serial dilutions in liquid media, n = 2–3
[13] = test system: Francisella tularensis (NR-643); assay: microbe, parasite or virus in culture; assay type: cell-based; settings: read-out: MIC Francisella tularensis (NR-643)
[14] = test system: Helicobacter pylori (ATCC43504); assay: MIC assay; assay type: cell-based; settings: two-fold serial dilutions in liquid media, n = 2–3
[15] = test system: Klebsiella pneumonia (DSM26371); assay: MIC assay; assay type: cell-based; settings: two-fold serial dilutions in liquid media, n = 2–3
[16] = test system: Salmonella enterica (CIP80.39); assay: MIC assay; assay type: cell-based; settings: two-fold serial dilutions in liquid media, n = 2–3
[17] = test system: Shigella flexneri (ATCC12022); assay: MIC assay; assay type: cell-based; settings: two-fold serial dilutions in liquid media, n = 2–3
[18] = test system: Vibrio alginolyticus (DSM2171); assay: MIC assay; assay type: cell-based; settings: two-fold serial dilutions in liquid media, n = 2–3
Yersinia pestis (NR-641) = assay: microbe, parasite or virus in culture; assay type: cell-based; settings: read-out: MIC Yersinia pestis (NR-641)
[19] = test system: Mycobacterium abscessus S (CIP 104536^T); assay: MIC assay (REMA); assay type: cell-based; settings: REMA microdilution, n = 2–3
[20] = test system: Mycobacterium abscessus R(CIP 104536^T); assay: MIC assay (REMA); assay type: cell-based; settings: REMA microdilution, n = 2–3
[21] = test system: Mycobacterium tuberculosis H37Rv (mc^26230); assay: MIC assay (REMA); assay type: cell-based; settings: REMA microdilution, n = 2–3
[22] = test system: Aspergillus fumigatus (DSM819); assay: MIC assay; assay type: cell-based; settings: two-fold serial dilutions in liquid media, n = 2–3
[23] = test system: Fusarium oxysporum (DSM62316); assay: MIC assay; assay type: cell-based; settings: two-fold serial dilutions in liquid media, n = 2–3
Candida auris (DSM21092) = assay: MIC assay; assay type: cell-based; settings: Candidozyma auris, two-fold serial dilutions in liquid media, n = 2–3
[24] = test system: Candida glabrata (DSM11226); assay: MIC assay; assay type: cell-based; settings: Nakaseomyces glabratus, two-fold serial dilutions in liquid media, n = 2–3
[25] = test system: Candida tropicalis (DSM9419); assay: MIC assay; assay type: cell-based; settings: two-fold serial dilutions in liquid media, n = 2–3
[26] = test system: Cryptococcus neoformans (DSM11959); assay: MIC assay; assay type: cell-based; settings: two-fold serial dilutions in liquid media, n = 2–3
[27] = Cytotoxic assay (resazurin); settings: human, A498 kidney epithelial cells
[28] = Cytotoxic assay (resazurin); settings: human, BEAS-2B normal lung epithelial cells
[29] = Cytotoxic assay (resazurin); settings: human, Caco-2
[30] = Cytotoxic assay (resazurin); settings: human, HaCaT normal epidermal keratinocytes
[31] = Cytotoxic assay (resazurin); settings: human, HepG2 liver cells
[32] = Cytotoxic assay (resazurin); settings: human, IMR-90 normal lung fibroblasts
[33] = Cytotoxic assay, summary over the six human cell types; settings: human, 48 h exposure

Q: For `CC(=O)Nc1ccc2c(c1)C(=O)/C(=C/c1ccc(OC(C)C)cc1)O2` [Compound 20, (Z)-N-(2-(4-isopropoxybenzylidene)-3-oxo-2,3-dihydrobenzofuran-5-yl)acetamide], which MIC (B. subtilis ATCC6633) is on record?
A: 25 µM (≈ 8.43 µg/mL)

Q: And the MIC (S. aureus ATCC6538P)?
A: 12.5 µM (≈ 4.22 µg/mL)

Q: And the MIC (E. coli ATCC8739)?
A: 25 µM (≈ 8.43 µg/mL)

Q: What about the MIC (P. aeruginosa ATCC9027; Pseudomonas aeruginosa, ATCC9027) of the same compound?
A: > 100 µM

Q: What about the MIC (P. aeruginosa ATCC9027) of the same compound?
A: >100 µM

Q: What about the MIC (M. smegmatis ATCC700084) of the same compound?
A: 50 µM (≈ 16.9 µg/mL)

Q: What about the MIC (C. albicans DSM10697) of the same compound?
A: 50 µM (≈ 16.9 µg/mL)

Q: And the MIC [1]?
A: 6.25 µM (≈ 2.11 µg/mL)

Q: And the MIC (Bacillus cereus (DSM31))?
A: 25 µM (≈ 8.43 µg/mL)

Q: And the MIC [2]?
A: 3.12 µM (≈ 1.05 µg/mL)

Q: And the MIC [3]?
A: 3.12 µM (≈ 1.05 µg/mL)

Q: What about the MIC [4] of the same compound?
A: > 100 µM

Q: And the MIC [5]?
A: 100 µM (≈ 33.7 µg/mL)

Q: What about the MIC [6] of the same compound?
A: 25 µM (≈ 8.43 µg/mL)

Q: And the MIC [7]?
A: 6.25 µM (≈ 2.11 µg/mL)

Q: And the MIC [8]?
A: > 100 µM

Q: What about the MIC (MRSA (ATCCBAA-1717)) of the same compound?
A: 25 µM (≈ 8.43 µg/mL)

Q: What about the MIC [9] of the same compound?
A: 50 µM (≈ 16.9 µg/mL)

Q: What about the MIC [10] of the same compound?
A: 25 µM (≈ 8.43 µg/mL)

Q: What about the MIC [11] of the same compound?
A: 12.5 µM (≈ 4.22 µg/mL)

Q: And the MIC ([12]; Enterobacter cloacae, DSM30054)?
A: > 100 µM

Q: And the MIC [12]?
A: >100 µM

Q: What about the MIC [13] of the same compound?
A: 12.5 µM (≈ 4.22 µg/mL)

Q: What about the MIC [14] of the same compound?
A: 12.5 µM (≈ 4.22 µg/mL)

Q: What about the MIC ([15]; Klebsiella pneumoniae, DSM26371) of the same compound?
A: > 100 µM

Q: What about the MIC [15] of the same compound?
A: >100 µM

Q: And the MIC [16]?
A: 50 µM (≈ 16.9 µg/mL)

Q: What about the MIC [17] of the same compound?
A: 50 µM (≈ 16.9 µg/mL)

Q: And the MIC [18]?
A: 50 µM (≈ 16.9 µg/mL)

Q: What about the MIC (Yersinia pestis (NR-641)) of the same compound?
A: 12.5 µM (≈ 4.22 µg/mL)

Q: What about the MIC ([19]; Mycobacteroides abscessus, CIP104536, S morphotype) of the same compound?
A: > 100 µM

Q: And the “MIC Mycobacterium abscessus S (CIP 104536^T)” value ([19]; S morphotype)?
A: inactive

Q: And the MIC ([20]; Mycobacteroides abscessus, CIP104536, R morphotype)?
A: > 100 µM

Q: What about the “MIC Mycobacterium abscessus R(CIP 104536^T)” value ([20]; R morphotype) of the same compound?
A: inactive

Q: And the MIC ([21]; Mycobacterium tuberculosis, H37RV)?
A: > 100 µM

Q: What about the “MIC Mycobacterium tuberculosis H37Rv (mc^26230)” value [21] of the same compound?
A: inactive

Q: What about the MIC ([22]; Aspergillus fumigatus, DSM819) of the same compound?
A: > 100 µM

Q: And the “MIC Aspergillus fumigatus (DSM819)” value [22]?
A: inactive

Q: And the MIC [23]?
A: 25 µM (≈ 8.43 µg/mL)

Q: What about the MIC (Candida auris (DSM21092)) of the same compound?
A: 12.5 µM (≈ 4.22 µg/mL)

Q: And the MIC [24]?
A: 50 µM (≈ 16.9 µg/mL)

Q: What about the MIC [25] of the same compound?
A: 100 µM (≈ 33.7 µg/mL)

Q: And the MIC [26]?
A: 25 µM (≈ 8.43 µg/mL)

Q: And the CC50 at 48 h [27]?
A: 453 µM

Q: What about the IC50 at 48 h [27] of the same compound?
A: 453 µM

Q: And the CC50 at 48 h [28]?
A: 126 µM

Q: And the IC50 at 48 h [28]?
A: 126 µM

Q: And the CC50 at 48 h [29]?
A: 186 µM

Q: What about the IC50 at 48 h [29] of the same compound?
A: 186 µM

Q: And the CC50 at 48 h [30]?
A: 323 µM

Q: What about the IC50 at 48 h [30] of the same compound?
A: 323 µM

Q: And the CC50 at 48 h [31]?
A: > 500 µM

Q: And the IC50 at 48 h [31]?
A: > 500 µM

Q: What about the CC50 at 48 h [32] of the same compound?
A: 438 µM

Q: What about the IC50 at 48 h [32] of the same compound?
A: 438 µM

Q: What about the CC50 at 48 h ([33]; Highest CC50, highest of the six human cell types) of the same compound?
A: > 500 µM

Q: And the CC50 at 48 h ([33]; Lowest CC50, lowest of the six human cell types)?
A: 126 µM

Source: article PMC11047580, “Design and Synthesis of Novel Amino and Acetamidoaurones with Antimicrobial Activities” (Antibiotics, 2024)
